Measured values from publication PMC9570017, “Unorthodox PCNA Binding by Chromatin Assembly Factor 1” (International Journal of Molecular Sciences, 2022).
Read-outs that look alike come from different tables or passages of the source.

How the values were obtained:
[1] = system: PCNA; details: in vitro; ref [18]; cited from earlier work
Excerpt: CAF-1 is composed of three subunits, conserved from yeast to human. In humans, mice, and Xenopus, the three subunits of CAF-1 are p150 (CHAF1A), p60 (CHAF1B), and RbAp48 (RBBP4). p150 contains two regions that bind PCNA. The first is a motif located within the N-terminal domain of p150 that we previously referred to as the PCNA binding domain (PBD) (Figure 1A). […] I ... || Similarly, the CAF-1 PIP box sequence of Msh3, which is a part of the DNA mismatch repair machinery, is 19-[…]-41 and in accordance with the canonical sequence, the first PIP box residue corresponds to a glutamine, whereas in contrast, in the PIP box of CAF-1 this is replaced by a lysine at this position, thus making the binding mode of CAF-1 p150 non-canonical and unique in the case of human CAF-1 sequence 442-[…]-449 and mouse CAF-1 sequence 421-[…]-428. Previous research from our lab has also shown that substitution of the CAF-1 p150 lysine by a glutamine to ...

[2] = system: replication-coupled chromatin assembly; details: ref [18], cited from earlier work
Excerpt: CAF-1 is composed of three subunits, conserved from yeast to human. In humans, mice, and Xenopus, the three subunits of CAF-1 are p150 (CHAF1A), p60 (CHAF1B), and RbAp48 (RBBP4). p150 contains two regions that bind PCNA. The first is a motif located within the N-terminal domain of p150 that we previously referred to as the PCNA binding domain (PBD) (Figure 1A). […] In order to probe this further, we determined the preliminary model of the structure of CAF-1 p150 PIP bound to PCNA based on a molecular replacement solution that could not be refined further. We report here that the CAF-1 PIP binds to PCNA in an unprecedented manner.

[3] = system: PCNA; assay: Intrinsic tryptophan fluorescence quenching of PCNA by p150L; assay type: binding, human; details: 5 µM PCNA monomer + 20 µM p150L, excitation 280 nm, 10 mM sodium phosphate pH 7.2, 10 mM NaCl, 0.1 mM TCEP, room temperature
Protocol: Fluorescence experiments were performed on an Agilent Cary Eclipse fluorimeter at room temperature. Buffer conditions were identical for all protein components (10 mM sodium phosphate, pH 7.2, 10 mM NaCl, 0.1 mM TCEP). Samples were excited at A280nm with a 5 nm bandwidth and the emission spectra between 295 nm and 420 nm were collected. Measurements were made for 5 μM PCNA monomer (1 tryptophan residue), 20 μM CAF-1 p150L (no tryptophan and tyrosine residues), and a mixture containing 5 μM PCNA monomer and 20 μM CAF-1 p150L. Both samples were extensively dialyzed against the same buffer and prepared from stock samples to ensure identical conditions.

[4] = system: PCNA; assay: NMR 1H-15N BEST HSQC of 15N-p150L with PCNA; assay type: binding, human; details: 50 μM p150L, 400 μM PCNA monomer, 10 mM sodium phosphate pH 7.2, 10 mM NaCl, 293K
Protocol: NMR experiments were carried out on a 600 MHz Bruker Avance III spectrometer equipped with a 5 mm QCIP cryoprobe with Z gradients. All experiments were carried out at 293K. Two-dimensional ^1H-^15N BEST HSQC [60] experiments were carried out using the sequences downloaded from the NMRlib suite of pulse sequences. Selective shaped pulses were used to excite a ^1H sweep width of 4.5 ppm, centered at 8.75 ppm, with a recycle delay of 0.2 s. ^1H and ^15N sweep widths were set to 8417.509 Hz (14 ppm) and 1920.466 Hz (31.6 ppm) respectively, typically 240 t1 increments were acquired. NMR samples were prepared in 10 mM sodium phosphate buffer, pH 7.2, 10 mM NaCl, and 90% H2O/10% D2O. Uniformly ^15N labelled CAF-1 p150L and unlabeled PCNA were prepared in identical buffers and added together from stock samples. Final sample concentrations were at 50 μM for CAF-1 p150L and 400 μM PCNA monomer. NMR spectra were processed with NMRpipe, a multidimensional spectral system based on UNIX pipes.

[5] = system: DNA; assay: Co-purification with nucleic acid (DNA binding); details: purification of p150L; high salt washes combined with benzonase required to remove nucleic acid
Excerpt: An unusually long α-helix (119 amino acids) is predicted to end abruptly in the PIP RFF residues. The CAF-1 p150 PIP is surrounded by a red rectangle. To address this surprising prediction, CAF-1 p150 fragments that contained the predicted long α-helix including the PIP were expressed in E. coli, purified, and their biochemical and biophysical properties were characterized. This fragment of human p150 (Figure 5, residues 342–474) was expressed as a His-tagged fusion protein, hereafter referred to as CAF-1 p150L. […] Further treatment with benzonase and three sequential 1 M NaCl washes were required to remove the contamination.
S2. Expression and purification of p150L in Escherichia coli
A DNA fragment encoding human p150 residues 342-475 was cloned into the pET28a vector (kanamycin resistant) in-frame with a C-terminal 6X-histidine tag. For p150L ex-pression, this plasmid was transformed into Escherichia coli BL21(DE3) RIL cells (Strata-gene). Single colonies were inoculated and grown overnight to saturation at 37°C in 2X YT medium containing 50 µg/ml kanamycin. The next day, cells were diluted and grown to mid-exponential phase (A600nm = 0.6 - 0.8) at 37°C and protein expression was induced at 20°C with 0.5 mM isopropyl-β-D-thiogalactopyranoside (IPTG) for 16 h. […]

quenching of PCNA tryptophan fluorescence / binding ([3]; listed as p150L) | Substance | binding to PCNA [1] | role or effect in chromatin assembly ([2]; listed as CAF-1 PIP) | role or effect in chromatin assembly [2] | quenching of PCNA tryptophan fluorescence / binding [3] | NMR signal changes on mixing with PCNA [4] | NMR signal changes on mixing with PCNA ([4]; listed as p150L) | DNA / nucleic acid binding [5]
 | KAEITRFF [PIP of p150] | shows weaker affinity for PCNA | preferentially inhibit nucleosome assembly over DNA synthesis | essential for chromatin assembly |  |  |  | 
weak binding | CAF-1 p150L: fragment of human p150 (residues 342–474) expressed as a His-tagged fusion protein |  |  |  | quenched a small portion of the tryptophan signal derived from PCNA | some of the well-resolved peaks corresponding to CAF-1 p150L disappeared or were significantly shifted | most of the p150L spectrum disappears | co-purified with nucleic acid contamination
